From ChEMBL document CHEMBL1144970, “Protective effects of steroid saponins from Paris polyphylla var. yunnanensis on ethanol- or indomethacin-induced gastric mucosal lesions in rats: structural requirement for activity and mode of action” (Bioorg Med Chem Lett, 2003)

Key:
[1] = system: Rattus norvegicus; test: Reduction in length (control value = 206.7+/-6.3) of gastric lesions induced by endomethacin was measured, after administration of 5 mg/kg po NEM-pretreated in rats; assay type: functional, Stomach
[2] = system: Rattus norvegicus; test: Volume of the gastric juice (control value = 4.7+/-.3) of stomach content of pylorus ligated rats was measured (5 mg/kg po of the Compound was administered 1 hr before the pylorus ligation); assay type: functional
[3] = system: Rattus norvegicus; test: Reduction in length (control value = 190.1+/-9.3) of gastric lesions induced by endomethacin was measured, after administration of 2.5 mg/kg po L-NAME-pretreated in rats; assay type: functional, Stomach
[4] = system: Rattus norvegicus; test: Percent inhibition of gastric lesions (length = 34.3+/-5.5) induced by ethanol was measured, after administration of 2.5 mg/kg po in rats; assay type: functional; settings: Stomach
[5] = system: Rattus norvegicus; test: Reduction in length (control value = 141+/-14.3) of gastric lesions induced by ethanol was measured, after administration of 2.5 mg/kg po in rats; assay type: functional, Stomach
[6] = system: Rattus norvegicus; test: Percent inhibition of gastric lesions induced by endomethacin was measured, after administration of 5 mg/kg po in rats; assay type: functional; settings: Stomach
[7] = system: Rattus norvegicus; test: Percent inhibition of gastric lesions induced by ethanol was measured, after administration of 5 mg/kg po in l-NAME-pretreated rats; assay type: functional; settings: Stomach
[8] = system: Rattus norvegicus; test: Percent inhibition of gastric lesions (length = 139.3+/-11.2) induced by ethanol was measured, after administration of 2.5 mg/kg po in endomethacin pretreated rats; assay type: functional; settings: Stomach
[9] = system: Rattus norvegicus; test: Percent inhibition of gastric lesions induced by ethanol was measured, after administration of 5 mg/kg po in rats; assay type: functional; settings: Stomach
[10] = system: Rattus norvegicus; test: Acid output from the stomach (control value = 120.3+/-11.1) in pylorus ligated rats (2.5 mg/kg po of the Compound was administered 1 hr before the pylorus ligation); assay type: functional
[11] = system: Rattus norvegicus; test: Percent inhibition of gastric lesions induced by endomethacin was measured, after administration of 1.25 mg/kg po in rats; assay type: functional; settings: Stomach
[12] = system: Rattus norvegicus; test: Volume of the gastric juice (control value = 4.7+/-.3) of stomach content of pylorus ligated rats was measured(2.5 mg/kg po of the Compound was administered 1 hr before the pylorus ligation); assay type: functional
[13] = system: Rattus norvegicus; test: Reduction in length (control value = 206.7+/-6.3) of gastric lesions induced by endomethacin was measured, after administration of 2.5 mg/kg po NEM-pretreated in rats; assay type: functional, Stomach
[14] = system: Rattus norvegicus; test: Reduction in length (control value = 141+/-14.3) of gastric lesions induced by ethanol was measured, after administration of 1.25 mg/kg po in rats; assay type: functional, Stomach
[15] = system: Rattus norvegicus; test: Reduction in length (control value = 152.9+/-9.7) of gastric lesions induced by ethanol was measured, after administration of 2.5 mg/kg po in Indomethacin-pretreated rats; assay type: functional, Stomach
[16] = system: Rattus norvegicus; test: Acid output from the stomach (control value = 120.3+/-11.1) in pylorus ligated rats (5 mg/kg po of the Compound was administered 1 hr before the pylorus ligation); assay type: functional
[17] = system: Rattus norvegicus; test: Percent inhibition of gastric lesions (length = 110+/-8.4) induced by ethanol was measured, after administration of 2.5 mg/kg po in NEM-pretreated rats; assay type: functional; settings: Stomach
[18] = system: Rattus norvegicus; test: Percent inhibition of gastric lesions induced by ethanol was measured, after administration of 2.5 mg/kg po in rats; assay type: functional; settings: Stomach
[19] = system: Rattus norvegicus; test: Reduction in length (control value = 141+/-14.3) of gastric lesions induced by ethanol was measured, after administration of 5 mg/kg po in rats; assay type: functional, Stomach
[20] = system: Rattus norvegicus; test: Reduction in length (control value = 70.4+/-2.3) of gastric lesions induced by endomethacin was measured, after administration of 2.5 mg/kg po in rats; assay type: functional, Stomach
[21] = system: Rattus norvegicus; test: Reduction in length (control value = 152.9+/-9.7) of gastric lesions induced by ethanol was measured, after administration of 5 mg/kg po in Indomethacin-pretreated rats; assay type: functional, Stomach
[22] = system: Rattus norvegicus; test: Percent inhibition of gastric lesions induced by endomethacin was measured, after administration of 2.5 mg/kg po in rats; assay type: functional; settings: Stomach
[23] = system: Rattus norvegicus; test: Reduction in length (control value = 70.4+/-2.3) of gastric lesions induced by endomethacin was measured, after administration of 1.25 mg/kg po in rats; assay type: functional, Stomach
[24] = system: Rattus norvegicus; test: Percent inhibition of gastric lesions induced by ethanol was measured, after administration of 1.25 mg/kg po in rats; assay type: functional; settings: Stomach
[25] = system: Rattus norvegicus; test: Reduction in length (control value = 70.4+/-2.3) of gastric lesions induced by endomethacin was measured, after administration of 5 mg/kg po in rats; assay type: functional, Stomach
[26] = system: Rattus norvegicus; test: Percent inhibition of gastric lesions (length = 92.8+/-8) induced by ethanol was measured, after administration of 2.5 mg/kg po in l-NAME-pretreated rats; assay type: functional; settings: Stomach
[27] = system: Rattus norvegicus; test: pH of the gastric juice (control value = 1.39+/-0.02) of stomach content of pylorus ligated rats was measured (5 mg/kg po of the Compound was administered 1 hr before the pylorus ligation); assay type: ADME, organism-based; settings: in vivo
[28] = system: Rattus norvegicus; test: pH of the gastric juice (control value = 1.39+/-0.02) of stomach content of pylorus ligated rats was measured (2.5 mg/kg po of the Compound was administered 1 hr before the pylorus ligation); assay type: ADME, organism-based; settings: in vivo
[29] = system: Rattus norvegicus; test: Reduction in length (control value = 190.1+/-9.3) of gastric lesions induced by endomethacin was measured, after administration of 5 mg/kg po L-NAME-pretreated in rats; assay type: functional, Stomach
[30] = system: Rattus norvegicus; test: Percent inhibition of gastric lesions (length = 24.9 +/-3.6) induced by ethanol was measured, after administration of 5 mg/kg po in rats; assay type: functional; settings: Stomach
[31] = system: Rattus norvegicus; test: Percent inhibition of gastric lesions (length = 50+/-9.9) induced by ethanol was measured, after administration of 5 mg/kg po in l-NAME-pretreated rats; assay type: functional; settings: Stomach
[32] = system: Rattus norvegicus; test: Percent inhibition of gastric lesions (length = 126.6+/-16.9) induced by ethanol was measured, after administration of 5 mg/kg po in endomethacin pretreated r rats; assay type: functional; settings: Stomach
[33] = system: Rattus norvegicus; test: Reduction in length ((control value = 126+/-9.1) of gastric lesions induced by ethanol was measured, after administration of 5 mg/kg po in rats; assay type: functional, Stomach
[34] = system: Rattus norvegicus; test: Reduction in length (control value = 126+/-9.1) of gastric lesions induced by ethanol was measured, after administration of 2.5 mg/kg po in rats; assay type: functional, Stomach

CC1CC[C@@]2(OC1)OC1C[C@H]3[C@@H]4CC=C5C[C@@H](O[C@@H]6O[C@H](CO)[C@@H](O[C@@H]7O[C@@H](CO)[C@H](O)[C@H]7O)[C@H](O)[C@H]6O[C@@H]6O[C@@H](C)[C@H](O)[C@@H](O)[C@H]6O)CC[C@]5(C)[C@H]4CC[C@]3(C)[C@@]1(O)[C@@H]2C (stereo partly specified)
Length [1]: 63 mm | Volume [2]: 3.3 ml 4hr-1 | Length [3]: 92.8 mm | inhibition in vivo at 2.5 mg/kg [4]: 74.8% | Length [5]: 24.1 mm | inhibition in vivo at 5 mg/kg [6]: 70.2% | inhibition in vivo at 5 mg/kg [7]: 69.5% | inhibition in vivo at 2.5 mg/kg [8]: 8.9% | inhibition in vivo at 5 mg/kg [9]: 93.7% | Acid output [10]: 98.5 u equiv hr-1 | inhibition in vivo at 1.25 mg/kg [11]: 50.4% | Volume [12]: 4.1 ml 4hr-1 | Length [13]: 110 mm | Length [14]: 72.6 mm | Length [15]: 139 mm | Acid output [16]: 71.8 u equiv hr-1 | inhibition in vivo at 2.5 mg/kg [17]: 46.8% | inhibition in vivo at 2.5 mg/kg [18]: 82.9% | Length [19]: 8.9 mm | Length [20]: 30.3 mm | Length [21]: 127 mm | inhibition in vivo at 2.5 mg/kg [22]: 57% | Length [23]: 34.9 mm | inhibition in vivo at 1.25 mg/kg [24]: 48.5% | Length [25]: 21 mm | inhibition in vivo at 2.5 mg/kg [26]: 51.2% | pH [27]: 1.41 | pH [28]: 1.41 | Length [29]: 50 mm | inhibition in vivo at 5 mg/kg [30]: 81.7% | inhibition in vivo at 5 mg/kg [31]: 73.7% | inhibition in vivo at 5 mg/kg [32]: 17.2%

C[C@@H](CC[C@@]1(O)O[C@H]2C[C@H]3[C@@H]4CC=C5C[C@@H](O[C@@H]6O[C@H](CO)[C@@H](O)[C@H](O[C@@H]7O[C@H](CO)[C@@H](O)[C@H](O)[C@H]7O)[C@H]6O[C@@H]6O[C@@H](C)[C@H](O)[C@@H](O)[C@H]6O)CC[C@]5(C)[C@H]4CC[C@]3(C)[C@H]2[C@@H]1C)CO[C@@H]1O[C@H](CO)[C@@H](O)[C@H](O)[C@H]1O [PROTOGRACILLIN]
inhibition in vivo at 5 mg/kg [9]: 14.1% | inhibition in vivo at 2.5 mg/kg [18]: 8.5% | Length [33]: 108 mm | Length [34]: 115 mm
